Reference: ChEMBL document CHEMBL5247659, “Design, Structure-Activity Relationships, and In Vivo Evaluation of Potent and Brain-Penetrant Imidazo[1,2-b]pyridazines as Glycogen Synthase Kinase-3β (GSK-3β) Inhibitors” (J Med Chem, 2023)
pIC50: −log10 of the molar value. ≈ marks a conversion by molar mass, not a printed value.

What was measured:
[1] = Inhibition of N-terminal 6-His tagged human recombinant GSK3-beta H355L mutant using FL-KRREILSRRP[ps]ERYR-NH2 as substrate incubated for 20 hrs
[2] = biological target: Glycogen synthase kinase-3 alpha (Homo sapiens, UniProt P49840); assay: Inhibition of full length GST-tagged human recombinant GSK3-alpha using FL-KRREILSRRP[ps]ERYR-NH2 as substrate incubated for 20 hrs
[3] = biological target: Cyclin-dependent kinase 2 (Homo sapiens, UniProt P24941); assay: Inhibition of CDK2 (unknown origin)
[4] = biological target: Cyclin-dependent kinase 5 (Homo sapiens, UniProt Q00535); assay: Inhibition of CDK5 (unknown origin)
[5] = biological target: AP2-associated protein kinase 1 (Homo sapiens, UniProt Q2M2I8); assay: Inhibition of AAK1 (unknown origin)
[6] = biological target: Serine/threonine-protein kinase pim-1 (Homo sapiens, UniProt P11309); assay: Inhibition of PIM1 (unknown origin)
[7] = biological target: Protein kinase C theta type (Homo sapiens, UniProt Q04759); assay: Inhibition of PKCtheta (unknown origin)
[8] = Metabolic stability in human liver microsomes assessed as parent compound remaining at 0.5 uM incubated for 10 mins by LC-MS/MS analysis; format: ADME, Microsome; conditions: read-out: Stability
[9] = Metabolic stability in mouse liver microsomes assessed as parent compound remaining at 0.5 uM incubated for 10 mins by LC-MS/MS analysis; format: ADME, Microsome; conditions: read-out: Stability
[10] = Plasma protein binding in mouse assessed as unbound fraction at 10 uM measured for 5 hrs by equilibrium dialysis based LC-MS/MS analysis; format: ADME, cell-free
[11] = Plasma protein binding in human assessed as unbound fraction at 10 uM measured for 5 hrs by equilibrium dialysis based LC-MS/MS analysis; format: ADME, cell-free
[12] = Permeability of compound at pH 5.5 incubated for 4 hrs by PAMPA assay; format: ADME; conditions: read-out: permeability
[13] = Permeability of compound at pH 7.4 incubated for 4 hrs by PAMPA assay; format: ADME; conditions: read-out: permeability
[14] = Permeability across apical to basolateral side in human Caco-2 cells at 3 uM incubated for 2 hrs by LC-MS/MS analysis; format: ADME, cell-based; conditions: read-out: permeability
[15] = Permeability across basolateral to apical side in human Caco-2 cells at 3 uM incubated for 2 hrs by LC-MS/MS analysis; format: ADME, cell-based; conditions: read-out: permeability
[16] = Solubility of compound in fasted state simulated intestinal fluid of pH 6.5 at 1 mg/ml measured after 18 to 24 hrs by HPLC-UV based analysis; format: ADME; conditions: time 18-24 hrs
[17] = Solubility of compound in fed state simulated intestinal fluid of pH 5 at 1 mg/ml measured after 18 to 24 hrs by HPLC-UV based analysis; format: ADME; conditions: time 18-24 hrs
[18] = Clearance in 8 hr fasted C57BL6 mouse at 2 mg/kg, iv; format: ADME, organism-based; conditions: in vivo
[19] = Volume of distribution at steady state in 8 hr fasted C57BL6 mouse at 2 mg/kg, iv; format: ADME, organism-based; conditions: in vivo, read-out: Vdss
[20] = MRT in 8 hr fasted C57BL6 mouse at 2 mg/kg, iv; format: ADME, organism-based; conditions: in vivo
[21] = Half life in 8 hr fasted C57BL6 mouse at 2 mg/kg, iv; format: ADME, organism-based; conditions: in vivo
[22] = AUC tot in 8 hr fasted C57BL6 mouse at 10 mg/kg, po; format: ADME, organism-based; design: dose 10 mg/kg, route po; conditions: in vivo
[23] = Cmax in 8 hr fasted C57BL6 mouse at 10 mg/kg, po; format: ADME, organism-based; design: dose 10 mg/kg, route po; conditions: in vivo
[24] = Oral bioavailability in 8 hr fasted C57BL6 mouse at 10 mg/kg; format: ADME, organism-based; conditions: in vivo
Mus musculus = assay: Antialzheimer activity against triple transgenic C57BL6 mouse model assessed as reduction in tau phosphorylation at S396 at 30 mg/kg, po measured 5 hrs post dose by ELISA relative to control; format: functional; design: scale not given: the % may be the effect or the level left
[25] = Drug exposure in triple transgenic C57BL6 alzheimer disease mouse plasma at 30 mg/kg, po measured after 5 hrs; format: ADME, organism-based
[26] = Drug exposure in triple transgenic C57BL6 alzheimer disease mouse brain at 30 mg/kg, po measured after 5 hrs; format: ADME, organism-based; conditions: read-out: Ct
[27] = Ratio of drug level in brain to plasma of triple transgenic C57BL6 alzheimer disease mouse at 30 mg/kg, po measured after 5 hrs; format: ADME, organism-based; conditions: read-out: BPR
[28] = Unbound brain-to-plasma concentration ratio in triple transgenic C57BL6 alzheimer disease mouse model at 30 mg/kg, po measured after 5 hrs; format: ADME, organism-based; conditions: read-out: K(p,uu,brain)
[29] = Unbound fraction in triple transgenic C57BL6 alzheimer disease model mouse brain homogenate at 30 mg/kg, po measured after 5 hrs; format: ADME, organism-based
[30] = biological target: Interleukin-1 receptor-associated kinase 1 (Homo sapiens, UniProt P51617); assay: Inhibition of IRAK1 (unknown origin)
[31] = biological target: Interleukin-1 receptor-associated kinase 4 (Homo sapiens, UniProt Q9NWZ3); assay: Inhibition of IRAK4 (unknown origin)
Aurora kinase B = Aurora kinase B (Homo sapiens, UniProt Q96GD4); assay: Inhibition of Aurora B (unknown origin)
[32] = biological target: Cytoplasmic tyrosine-protein kinase BMX (Homo sapiens, UniProt P51813); assay: Inhibition of BMX (unknown origin)
[33] = biological target: Tyrosine-protein kinase BTK (Homo sapiens, UniProt Q06187); assay: Inhibition of BTK (unknown origin)
[34] = biological target: Casein kinase II subunit alpha (Homo sapiens, UniProt P68400); assay: Inhibition of CK2A1 (unknown origin)
[35] = biological target: Casein kinase II subunit alpha' (Homo sapiens, UniProt P19784); assay: Inhibition of CK2A2 (unknown origin)
[36] = biological target: Tyrosine-protein kinase ITK/TSK (Homo sapiens, UniProt Q08881); assay: Inhibition of ITK (unknown origin)
[37] = biological target: Tyrosine-protein kinase JAK1 (Homo sapiens, UniProt P23458); assay: Inhibition of JAK1 (unknown origin)
[38] = biological target: Tyrosine-protein kinase JAK2 (Homo sapiens, UniProt O60674); assay: Inhibition of JAK2 (unknown origin)
[39] = biological target: Tyrosine-protein kinase Lck (Homo sapiens, UniProt P06239); assay: Inhibition of LCK (unknown origin)
[40] = biological target: Tyrosine-protein kinase Lyn (Homo sapiens, UniProt P07948); assay: Inhibition of LynA (unknown origin)
[41] = biological target: Mitogen-activated protein kinase 14 (Homo sapiens, UniProt Q16539); assay: Inhibition of p38alpha (unknown origin)
[42] = biological target: Tyrosine-protein kinase SYK (Homo sapiens, UniProt P43405); assay: Inhibition of SYK (unknown origin)
[43] = biological target: Tyrosine-protein kinase TXK (Homo sapiens, UniProt P42681); assay: Inhibition of TXK (unknown origin)
[44] = biological target: Non-receptor tyrosine-protein kinase TYK2 (Homo sapiens, UniProt P29597); assay: Inhibition of TYK2 (unknown origin)
[45] = biological target: Mast/stem cell growth factor receptor Kit (Homo sapiens, UniProt P10721); assay: Inhibition of cKIT (unknown origin)
[46] = biological target: Insulin-like growth factor 1 receptor (Homo sapiens, UniProt P08069); assay: Inhibition of IGF1R (unknown origin)
Aurora kinase A = Aurora kinase A (Mus musculus, UniProt P97477); assay: Inhibition of mouse AURA
[47] = biological target: MAP kinase-activated protein kinase 2 (Homo sapiens, UniProt P49137); assay: Inhibition of MK2 (unknown origin)
[48] = biological target: Platelet-derived growth factor receptor beta (Homo sapiens, UniProt P09619); assay: Inhibition of PDGFRbeta (unknown origin)
[49] = biological target: Ribosomal protein S6 kinase alpha-1 (Homo sapiens, UniProt Q15418); assay: Inhibition of RSK1 (unknown origin)
[50] = Aqueous solubility of compound in potassium phosphate buffer at pH 1 at 1 mg/ml measured after 18 to 24 hrs by HPLC-UV based analysis; format: physicochemical; conditions: time 18-24 hrs
[51] = Aqueous solubility of compound in potassium phosphate buffer at pH 7.4 at 1 mg/ml measured after 18 to 24 hrs by HPLC-UV based analysis; format: physicochemical; conditions: time 18-24 hrs
P-glycoprotein (ABCB1) = P-glycoprotein (ABCB1) (Homo sapiens, UniProt P08183); assay: Substrate activity at P-glycoprotein in human Caco-2 cells assessed as efflux ratio of permeability across basolateral to apical side over apical to basolateral side at 3 uM incubated for 2 hrs by LC-MS/MS analysis; format: ADME, cell-based
[52] = Inhibition of tau 4R1N phosphorylation (unknown origin) at S396 residue transfected in human U2OS cells coexpressing GFP-tagged beta catenin incubated overnight by high content imaging assay

Sequence of Mitogen-activated protein kinase 14 (Q16539 whole entry): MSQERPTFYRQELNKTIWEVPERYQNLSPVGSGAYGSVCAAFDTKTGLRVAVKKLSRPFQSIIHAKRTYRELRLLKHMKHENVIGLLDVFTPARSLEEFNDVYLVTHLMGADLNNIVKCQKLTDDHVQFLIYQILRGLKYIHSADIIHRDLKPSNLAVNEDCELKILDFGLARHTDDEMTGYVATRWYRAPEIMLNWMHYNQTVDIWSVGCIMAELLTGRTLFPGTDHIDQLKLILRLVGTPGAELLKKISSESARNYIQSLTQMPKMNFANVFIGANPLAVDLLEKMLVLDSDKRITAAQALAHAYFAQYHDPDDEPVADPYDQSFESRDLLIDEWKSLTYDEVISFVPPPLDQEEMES
Sequence of Casein kinase II subunit alpha' (P19784 whole entry): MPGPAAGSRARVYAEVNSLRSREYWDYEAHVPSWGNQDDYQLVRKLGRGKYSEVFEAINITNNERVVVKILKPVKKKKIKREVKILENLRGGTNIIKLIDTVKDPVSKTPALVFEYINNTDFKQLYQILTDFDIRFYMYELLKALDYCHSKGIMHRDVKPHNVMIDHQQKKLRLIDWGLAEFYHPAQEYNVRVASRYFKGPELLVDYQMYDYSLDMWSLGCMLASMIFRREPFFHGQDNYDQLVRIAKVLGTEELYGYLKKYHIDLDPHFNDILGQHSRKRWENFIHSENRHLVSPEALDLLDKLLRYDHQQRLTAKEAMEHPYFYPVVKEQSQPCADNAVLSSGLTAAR
Sequence of Interleukin-1 receptor-associated kinase 4 (Q9NWZ3 whole entry): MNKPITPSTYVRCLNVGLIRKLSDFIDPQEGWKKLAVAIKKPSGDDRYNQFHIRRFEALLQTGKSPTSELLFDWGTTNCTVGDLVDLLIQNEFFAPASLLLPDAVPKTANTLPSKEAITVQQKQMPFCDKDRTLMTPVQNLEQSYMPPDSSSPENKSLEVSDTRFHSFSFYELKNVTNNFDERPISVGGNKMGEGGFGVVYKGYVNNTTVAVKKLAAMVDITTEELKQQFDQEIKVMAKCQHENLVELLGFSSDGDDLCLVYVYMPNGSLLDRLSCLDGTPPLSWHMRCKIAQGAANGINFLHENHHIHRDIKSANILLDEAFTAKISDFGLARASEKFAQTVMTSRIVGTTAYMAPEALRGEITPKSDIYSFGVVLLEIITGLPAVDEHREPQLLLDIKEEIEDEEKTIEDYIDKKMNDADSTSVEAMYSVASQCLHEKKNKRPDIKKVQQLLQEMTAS
Sequence of Aurora kinase A (P97477 whole entry): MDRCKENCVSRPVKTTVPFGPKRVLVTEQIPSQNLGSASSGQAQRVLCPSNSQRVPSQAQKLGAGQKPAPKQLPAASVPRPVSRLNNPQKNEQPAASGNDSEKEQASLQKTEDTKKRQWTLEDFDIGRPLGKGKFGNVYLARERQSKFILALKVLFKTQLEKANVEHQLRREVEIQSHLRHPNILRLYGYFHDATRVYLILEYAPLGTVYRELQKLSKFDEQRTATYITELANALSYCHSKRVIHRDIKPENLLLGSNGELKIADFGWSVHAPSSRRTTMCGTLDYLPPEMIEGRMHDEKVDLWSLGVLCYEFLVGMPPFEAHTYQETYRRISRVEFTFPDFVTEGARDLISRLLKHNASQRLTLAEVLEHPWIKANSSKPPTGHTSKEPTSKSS
Sequence of Casein kinase II subunit alpha (P68400 whole entry): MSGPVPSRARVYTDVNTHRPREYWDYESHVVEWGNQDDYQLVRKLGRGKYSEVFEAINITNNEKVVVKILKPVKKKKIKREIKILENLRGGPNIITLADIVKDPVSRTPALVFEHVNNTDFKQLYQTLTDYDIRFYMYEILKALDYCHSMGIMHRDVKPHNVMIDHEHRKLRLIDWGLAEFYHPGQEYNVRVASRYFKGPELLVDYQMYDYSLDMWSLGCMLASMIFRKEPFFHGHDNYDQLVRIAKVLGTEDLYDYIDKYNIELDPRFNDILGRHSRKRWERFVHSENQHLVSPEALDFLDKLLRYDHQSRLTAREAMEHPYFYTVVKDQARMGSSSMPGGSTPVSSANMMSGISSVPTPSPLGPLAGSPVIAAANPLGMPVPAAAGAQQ
Sequence of Glycogen synthase kinase-3 alpha (P49840 whole entry): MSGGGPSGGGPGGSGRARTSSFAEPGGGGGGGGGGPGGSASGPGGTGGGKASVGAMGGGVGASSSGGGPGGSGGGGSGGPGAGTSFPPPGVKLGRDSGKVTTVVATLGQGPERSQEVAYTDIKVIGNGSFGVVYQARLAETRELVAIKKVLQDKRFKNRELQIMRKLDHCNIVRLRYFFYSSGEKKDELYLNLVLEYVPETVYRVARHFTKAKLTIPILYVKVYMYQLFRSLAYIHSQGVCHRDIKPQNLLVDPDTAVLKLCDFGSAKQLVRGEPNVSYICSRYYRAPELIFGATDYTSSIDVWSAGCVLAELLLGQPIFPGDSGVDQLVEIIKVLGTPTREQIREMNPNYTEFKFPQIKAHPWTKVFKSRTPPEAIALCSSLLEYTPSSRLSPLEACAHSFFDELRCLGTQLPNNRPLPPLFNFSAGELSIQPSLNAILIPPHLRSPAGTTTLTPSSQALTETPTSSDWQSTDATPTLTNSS
Sequence of Tyrosine-protein kinase BTK (Q06187 whole entry): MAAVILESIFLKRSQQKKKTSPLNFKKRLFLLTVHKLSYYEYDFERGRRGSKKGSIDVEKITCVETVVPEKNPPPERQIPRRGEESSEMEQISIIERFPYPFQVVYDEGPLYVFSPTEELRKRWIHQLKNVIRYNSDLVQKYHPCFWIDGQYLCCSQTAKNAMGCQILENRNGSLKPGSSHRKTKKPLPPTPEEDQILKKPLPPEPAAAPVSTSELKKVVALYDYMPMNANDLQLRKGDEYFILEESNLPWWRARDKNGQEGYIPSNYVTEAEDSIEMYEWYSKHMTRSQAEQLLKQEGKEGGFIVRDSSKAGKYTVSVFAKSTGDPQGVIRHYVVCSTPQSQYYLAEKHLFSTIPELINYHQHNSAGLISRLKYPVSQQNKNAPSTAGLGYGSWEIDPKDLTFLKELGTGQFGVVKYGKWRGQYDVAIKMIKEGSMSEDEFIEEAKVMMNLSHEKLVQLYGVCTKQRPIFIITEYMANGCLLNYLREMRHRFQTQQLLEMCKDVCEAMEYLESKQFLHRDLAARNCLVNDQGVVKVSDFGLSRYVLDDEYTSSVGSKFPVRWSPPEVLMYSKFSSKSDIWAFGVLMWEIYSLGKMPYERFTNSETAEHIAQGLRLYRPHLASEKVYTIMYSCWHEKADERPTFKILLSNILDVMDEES
Sequence of Mast/stem cell growth factor receptor Kit (P10721 whole entry): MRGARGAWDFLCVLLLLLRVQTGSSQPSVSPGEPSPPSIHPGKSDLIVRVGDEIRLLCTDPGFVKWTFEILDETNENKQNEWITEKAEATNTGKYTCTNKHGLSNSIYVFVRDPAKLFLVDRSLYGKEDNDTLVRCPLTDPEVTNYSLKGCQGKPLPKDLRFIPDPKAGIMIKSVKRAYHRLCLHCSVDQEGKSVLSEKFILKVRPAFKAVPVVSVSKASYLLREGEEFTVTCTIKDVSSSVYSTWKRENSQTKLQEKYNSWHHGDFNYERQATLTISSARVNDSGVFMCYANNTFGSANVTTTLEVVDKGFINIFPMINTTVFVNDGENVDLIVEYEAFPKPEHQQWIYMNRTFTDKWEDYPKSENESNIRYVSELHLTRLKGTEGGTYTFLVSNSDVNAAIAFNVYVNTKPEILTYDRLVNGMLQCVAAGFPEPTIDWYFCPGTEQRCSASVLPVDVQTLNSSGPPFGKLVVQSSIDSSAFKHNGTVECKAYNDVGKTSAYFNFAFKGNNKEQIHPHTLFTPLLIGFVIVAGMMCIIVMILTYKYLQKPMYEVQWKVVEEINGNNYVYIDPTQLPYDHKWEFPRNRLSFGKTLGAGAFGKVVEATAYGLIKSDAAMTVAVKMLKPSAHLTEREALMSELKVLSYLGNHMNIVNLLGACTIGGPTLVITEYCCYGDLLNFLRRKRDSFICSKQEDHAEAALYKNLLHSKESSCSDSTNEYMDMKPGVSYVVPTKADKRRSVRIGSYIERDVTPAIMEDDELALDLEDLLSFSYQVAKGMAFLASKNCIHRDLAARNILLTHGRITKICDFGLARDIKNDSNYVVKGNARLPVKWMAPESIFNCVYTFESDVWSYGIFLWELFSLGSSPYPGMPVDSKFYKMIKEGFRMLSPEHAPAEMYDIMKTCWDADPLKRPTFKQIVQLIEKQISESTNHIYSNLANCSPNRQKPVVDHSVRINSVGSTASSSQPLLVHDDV
Sequence of Protein kinase C theta type (Q04759 whole entry): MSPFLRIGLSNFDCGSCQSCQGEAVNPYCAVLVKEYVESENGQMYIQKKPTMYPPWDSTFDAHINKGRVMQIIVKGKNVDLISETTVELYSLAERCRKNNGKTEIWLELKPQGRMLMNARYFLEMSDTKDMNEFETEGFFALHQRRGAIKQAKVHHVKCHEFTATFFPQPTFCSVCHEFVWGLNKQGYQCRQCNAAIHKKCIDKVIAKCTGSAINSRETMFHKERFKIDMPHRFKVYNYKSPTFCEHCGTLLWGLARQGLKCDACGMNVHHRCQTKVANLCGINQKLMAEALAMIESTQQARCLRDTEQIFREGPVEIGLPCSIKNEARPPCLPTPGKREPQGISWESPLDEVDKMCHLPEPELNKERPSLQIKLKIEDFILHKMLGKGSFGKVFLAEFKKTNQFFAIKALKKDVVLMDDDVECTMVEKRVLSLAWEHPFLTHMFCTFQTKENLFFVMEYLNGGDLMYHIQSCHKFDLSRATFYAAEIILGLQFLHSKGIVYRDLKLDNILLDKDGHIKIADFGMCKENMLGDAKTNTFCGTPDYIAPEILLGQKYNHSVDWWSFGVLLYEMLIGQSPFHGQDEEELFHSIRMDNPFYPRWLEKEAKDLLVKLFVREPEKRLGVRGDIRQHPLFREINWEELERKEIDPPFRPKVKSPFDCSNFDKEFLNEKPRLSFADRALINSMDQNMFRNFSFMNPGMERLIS

CC1CN(c2ccncc2NC(=O)c2ccnn3cc(-c4ccccc4)nc23)CCO1 (racemic)
pIC50 [1]: 9.14 | pIC50 [2]: 9.46 | pIC50 [3]: 5.85 | pIC50 [4]: 5.19 | pIC50 [5]: 6.70 | pIC50 [6]: 6.42 | pIC50 [7]: 6.44 | remaining at 10 min, 0.5 µM [8]: 17% | remaining at 10 min, 0.5 µM [9]: 7% | fraction unbound at 5 h, 10 µM [10]: 0.009 | fraction unbound at 5 h, 10 µM [11]: 0.008 | Papp at 4 h [12]: 100 ×10⁻⁶ cm/s | Papp at 4 h [13]: 80.6 ×10⁻⁶ cm/s | Papp A→B at 2 h, 3 µM [14]: 13.8 ×10⁻⁶ cm/s | Papp B→A at 2 h, 3 µM [15]: 7.1 ×10⁻⁶ cm/s | solubility [16]: 21 µg/mL (≈ 50.7 µM) | solubility [17]: 788 µg/mL (≈ 1900 µM) | clearance [18]: 3.8 mL/min/kg | Vd [19]: 1.1 L/kg | MRT [20]: 4.8 h | half-life [21]: 5.2 h | AUC [22]: 68.3 µM·h | Cmax [23]: 7.8 µM | bioavailability [24]: 64% | Activity (Mus musculus): 52% | concentration at 5 h [25]: 3.8 µM | concentration at 5 h [26]: 1.3 µM | Kp at 5 h [27]: 0.34 | Kp uu at 5 h [28]: 0.34 | fraction unbound at 5 h [29]: 0.009 | pIC50 [30]: < 5.70 | pIC50 [31]: < 5.70 | pIC50 (Aurora kinase B): < 5.70 | pIC50 [32]: < 5.70 | pIC50 [33]: < 5.70 | pIC50 [34]: < 5.70 | pIC50 [35]: < 5.70 | pIC50 [36]: < 5.70 | pIC50 [37]: < 5.70 | pIC50 [38]: < 5.70 | pIC50 [39]: < 5.70 | pIC50 [40]: < 5.70 | pIC50 [41]: < 5.70 | pIC50 [42]: < 5.70 | pIC50 [43]: < 5.70 | pIC50 [44]: < 5.70 | pIC50 [45]: < 4.30 | pIC50 [46]: < 4.30 | pIC50 (Aurora kinase A): < 4.30 | pIC50 [47]: < 4.30 | pIC50 [48]: < 4.30 | pIC50 [49]: < 4.30 | solubility [50]: 1220 µg/mL (≈ 2940 µM) | solubility [51]: 14 µg/mL (≈ 33.8 µM) | efflux ratio at 2 h, 3 µM (P-glycoprotein (ABCB1)): < 1 | pIC50 [52]: 7.24
